In patent publication US12649750B2, “Macrocyclic compounds, compositions, and methods of using thereof” (Sionna Therapeutics Inc., priority 2022, dated 2026):

Assays:
[1] = molecular target: T1, NBD1 (Homo sapiens, UniProt P13569); test: Aggregation analysis using differential static light scattering (DSLS), thermal stability of NBD1 (ΔTagg); format: binding; conditions: ΔTagg versus DMSO control, NBD1 0.2 mg/ml
T1 construct: Purified recombinant NBD1 was produced using previously described methods; made in house
T1 sequence (P13569 423-646 limits assumed): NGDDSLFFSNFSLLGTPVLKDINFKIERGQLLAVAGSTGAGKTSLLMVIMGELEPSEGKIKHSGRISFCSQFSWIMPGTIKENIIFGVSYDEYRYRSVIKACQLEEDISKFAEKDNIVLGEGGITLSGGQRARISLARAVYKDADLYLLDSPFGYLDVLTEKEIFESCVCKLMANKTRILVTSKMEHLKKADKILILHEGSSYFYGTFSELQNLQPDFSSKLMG
Method in brief: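 Read-out is ΔTagg: the aggregation temperature, taken at the inflection of the light-scattering curve, less the average of DMSO control wells. Recombinant NBD1 (0.2 mg/ml, pH7.6 buffer containing 2 mM ATP) with test compound was heated at 1° C. per minute up to 70° C.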

[2] = molecular target: T2, CFTR (Homo sapiens, UniProt P13569, DEL508-508); test: TECC24 AUC fold over DMSO @10 μM, CFTR-mediated transepithelial chloride transport in CF-HBE cells; format: cell-based; conditions: test agent AUC divided by DMSO vehicle AUC, primary CF-HBE cells, ΔF508 homozygous donor, 48 hours incubation
T2 construct: Primary human bronchial epithelial cells from a ΔF508 homozygous CF donor; host or cells: primary human bronchial epithelial cells (CF-HBE), ΔF508 homozygous donor
T2 sequence (P13569 with tags, fused parts or gaps DEL508-508): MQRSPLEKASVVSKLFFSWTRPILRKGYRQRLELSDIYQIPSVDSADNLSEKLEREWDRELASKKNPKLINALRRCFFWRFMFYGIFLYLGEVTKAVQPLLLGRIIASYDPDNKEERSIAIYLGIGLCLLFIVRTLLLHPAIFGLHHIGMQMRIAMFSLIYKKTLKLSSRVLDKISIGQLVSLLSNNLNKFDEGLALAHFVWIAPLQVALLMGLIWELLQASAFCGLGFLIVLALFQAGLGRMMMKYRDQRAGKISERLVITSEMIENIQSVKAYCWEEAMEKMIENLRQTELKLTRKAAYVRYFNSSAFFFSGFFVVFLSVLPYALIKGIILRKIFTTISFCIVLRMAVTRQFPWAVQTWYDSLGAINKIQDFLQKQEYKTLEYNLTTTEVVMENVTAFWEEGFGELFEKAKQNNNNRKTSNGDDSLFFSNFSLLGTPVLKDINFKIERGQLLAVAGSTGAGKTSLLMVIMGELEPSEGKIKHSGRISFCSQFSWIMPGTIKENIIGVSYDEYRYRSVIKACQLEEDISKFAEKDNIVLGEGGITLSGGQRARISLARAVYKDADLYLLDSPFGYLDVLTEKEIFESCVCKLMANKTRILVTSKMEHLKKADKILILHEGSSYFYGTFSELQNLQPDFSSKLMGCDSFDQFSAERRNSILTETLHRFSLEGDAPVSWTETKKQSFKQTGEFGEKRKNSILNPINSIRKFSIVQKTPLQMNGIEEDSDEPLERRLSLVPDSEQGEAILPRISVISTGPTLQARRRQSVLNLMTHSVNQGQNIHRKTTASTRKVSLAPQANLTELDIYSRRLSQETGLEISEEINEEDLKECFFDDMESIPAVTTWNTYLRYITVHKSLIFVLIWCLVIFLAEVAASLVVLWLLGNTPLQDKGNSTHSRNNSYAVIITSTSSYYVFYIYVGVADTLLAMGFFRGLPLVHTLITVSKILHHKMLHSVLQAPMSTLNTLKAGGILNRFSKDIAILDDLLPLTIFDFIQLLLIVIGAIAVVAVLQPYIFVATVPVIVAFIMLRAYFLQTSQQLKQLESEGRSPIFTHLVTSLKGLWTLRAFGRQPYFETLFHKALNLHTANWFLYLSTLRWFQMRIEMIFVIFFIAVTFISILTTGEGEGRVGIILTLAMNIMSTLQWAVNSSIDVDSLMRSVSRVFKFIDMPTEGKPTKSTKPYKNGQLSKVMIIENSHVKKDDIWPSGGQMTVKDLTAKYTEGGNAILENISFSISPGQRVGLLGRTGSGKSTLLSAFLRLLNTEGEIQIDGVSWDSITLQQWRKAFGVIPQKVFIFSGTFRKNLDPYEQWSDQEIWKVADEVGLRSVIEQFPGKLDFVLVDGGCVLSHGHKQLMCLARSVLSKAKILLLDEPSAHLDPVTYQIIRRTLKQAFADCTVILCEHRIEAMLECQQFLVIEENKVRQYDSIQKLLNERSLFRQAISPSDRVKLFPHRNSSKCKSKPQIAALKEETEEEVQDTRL
Method in brief: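 ΔF508-homozygous primary bronchial epithelial cells incubated 48 h at 36.5° C with compound (10 μM) in IL-13-containing medium, then TECC24 current-clamp recording in pH 7.4 Hepes saline with benzamil 10 μM, forskolin 10 μM, then CFTR inhibitor-172 20 μM. Equivalent Cl− current AUC between forskolin and inhibitor, expressed as fold over DMSO.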

Row | Structure (SMILES) | DSLS 3D (100 μM ΔT) [1] | TECC (AUC, 10 μM) [2]
1 | Cn1nc2nc1-c1cc(ccc1F)Oc1c(F)cc3[nH]ccc3c1Cc1ccn(n1)CCS(=O)(=O)CCC2(C)c1cccc(CCC(=O)O)c1 (single isomer, unassigned) [Compound 100B, 3-[3-(24,30-difluoro-3,6-dimethyl-9,9-dioxo-26-oxa-9λ6-thia-3,4,12,21,32,33-hexazahexacyclo[25.3.1.12,5.112,15.017,25.018,22]tritriaconta-1(31),2(33),4,13,15(32),17,19,22,24,27,29-undecaen-6-yl)phenyl]propanoic Acid] | A (an ΔTagg value less than or equal to 5 °C is marked “A”) | A (a TECC value less than 12 is marked “A”)
2 | Cc1c2nnn1Cc1c(c(F)cc3[nH]ccc13)Oc1ccc(F)c(c1)-c1nc(nn1C)C(C)(c1cccc(CCC(=O)O)c1)CCS(=O)(=O)C2 (single isomer, unassigned) [Compound 101A, 3-[3-(23,29-difluoro-3,6,31-trimethyl-9,9-dioxo-25-oxa-9lambda6-thia-3,4,12,13,14,20,32-heptazahexacyclo[24.3.1.12,5.111,14.016,24.017,21]-dotriaconta-1(30),2(32),4,11(31),12,16,18,21,23,26,28-undecaen-6-yl)phenyl]propanoic Acid] | A (an ΔTagg value less than or equal to 5 °C is marked “A”) | A (a TECC value less than 12 is marked “A”)
3 | Cc1c2nnn1Cc1c(c(F)cc3[nH]ccc13)Oc1ccc(F)c(c1)-c1nc(nn1C)C(C)(c1cccc(CCC(=O)O)c1)CCS(=O)(=O)C2 (single isomer, unassigned) [Compound 101B, 3-[3-(23,29-difluoro-3,6,31-trimethyl-9,9-dioxo-25-oxa-9lambda6-thia-3,4,12,13,14,20,32-heptazahexacyclo[24.3.1.12,5.111,14.016,24.017,21]-dotriaconta-1(30),2(32),4,11(31),12,16,18,21,23,26,28-undecaen-6-yl)phenyl]propanoic Acid] | B (a value above 5 °C and less than or equal to 10 °C is marked “B”) | A (a TECC value less than 12 is marked “A”)
4 | Cn1nc2nc1-c1cc(ccc1F)Oc1c(F)cc3[nH]ccc3c1CCS(=O)(=O)CC(F)(F)C(C)(C)CCC2(C)c1cccc(CCC(=O)O)c1 (single isomer, unassigned) [Compound 102A, 3-[3-[10,10,22,28-tetrafluoro-3,6,9,9-tetramethyl-12,12-dioxo-24-oxa-12lambda6-thia-3,4,19,30-tetrazapentacyclo[23.3.1.12,5.015,23.016,20]-triaconta-1(29),2(30),4,15,17,20,22,25,27-nonaen-6-yl]phenyl]propanoic Acid] | A (an ΔTagg value less than or equal to 5 °C is marked “A”) | A (a TECC value less than 12 is marked “A”)
5 | Cn1nc2nc1-c1cc(ccc1F)Oc1c(F)cc3[nH]ccc3c1CCS(=O)(=O)CC(F)(F)C(C)(C)CCC2(C)c1cccc(CCC(=O)O)c1 (single isomer, unassigned) [Compound 102B, 3-[3-[10,10,22,28-tetrafluoro-3,6,9,9-tetramethyl-12,12-dioxo-24-oxa-12lambda6-thia-3,4,19,30-tetrazapentacyclo[23.3.1.12,5.015,23.016,20]triaconta-1(29),2(30),4,15,17,20,22,25,27-nonaen-6-yl]phenyl]propanoic acid] | B (a value above 5 °C and less than or equal to 10 °C is marked “B”) | B (a value between 12-20 is marked “B”)
6 | CC(Cc1cccc(C2(CF)CCCC(C)(C)CS(=O)(=O)CCc3c(c(F)cc4[nH]ccc34)Oc3ccc(F)c(c3)-c3nc2nn3C)c1)C(=O)O (single isomer, unassigned) [Compound 108A, 3-[3-[22,28-difluoro-6-(fluoromethyl)-3,10,10-trimethyl-12,12-dioxo-24-oxa-12λ6-thia-3,4,19,30-tetrazapentacyclo[23.3.1.12,5.015,23.016,20]triaconta-1(29),2(30),4,15,17,20,22,25,27-nonaen-6-yl]phenyl]-2-methyl-propanoic acid] | A (an ΔTagg value less than or equal to 5 °C is marked “A”) | A (a TECC value less than 12 is marked “A”)
7 | CC(Cc1cccc(C2(CF)CCCC(C)(C)CS(=O)(=O)CCc3c(c(F)cc4[nH]ccc34)Oc3ccc(F)c(c3)-c3nc2nn3C)c1)C(=O)O (single isomer, unassigned) [Compound 108B, 3-[3-[22,28-difluoro-6-(fluoromethyl)-3,10,10-trimethyl-12,12-dioxo-24-oxa-12λ6-thia-3,4,19,30-tetrazapentacyclo[23.3.1.12,5.015,23.016,20]triaconta-1(29),2(30),4,15,17,20,22,25,27-nonaen-6-yl]phenyl]-2-methyl-propanoic acid] | A (an ΔTagg value less than or equal to 5 °C is marked “A”) | C (a value between 20 and 80 is marked “C”)
8 | Cn1nc2nc1-c1cc(ccc1F)Oc1c(F)cc3[nH]ccc3c1Cn1cc(cn1)C(C)(C)CS(=O)(=O)CCC2(C)c1cccc(CCC(=O)O)c1 (single isomer, unassigned) [Compound 109A, 3-[3-(24,30-difluoro-3,6,11,11-tetramethyl-9,9-dioxo-26-oxa-9lambda6-thia-3,4,14,15,21,33-hexazahexacyclo[25.3.1.12,5.112,15.017,25.018,22]tritriaconta-1(31),2(33),4,12(32),13,17,19,22,24,27,29-undecaen-6-yl)phenyl]propanoic Acid] | C (a value greater than 10 °C and less than or equal to 25 °C is marked “C”) | C (a value between 20 and 80 is marked “C”)
9 | Cn1nc2nc1-c1cc(ccc1F)Oc1c(F)cc3[nH]ccc3c1Cn1cc(cn1)C(C)(C)CS(=O)(=O)CCC2(C)c1cccc(CCC(=O)O)c1 (single isomer, unassigned) [Compound 109B, 3-[3-(24,30-difluoro-3,6,11,11-tetramethyl-9,9-dioxo-26-oxa-9lambda6-thia-3,4,14,15,21,33-hexazahexacyclo[25.3.1.12,5.112,15.017,25.018,22]tritriaconta-1(31),2(33),4,12(32),13,17,19,22,24,27,29-undecaen-6-yl)phenyl]propanoic Acid] | A (an ΔTagg value less than or equal to 5 °C is marked “A”) | A (a TECC value less than 12 is marked “A”)
10 | CC(Cc1cccc(C2(C)COCC(C)(C)CS(=O)(=O)CCc3c(c(F)cc4[nH]ccc34)Oc3ccc(F)c(c3)-c3nc2nn3C)c1)C(=O)O (single isomer, unassigned) [Compound 113A] | C (a value greater than 10 °C and less than or equal to 25 °C is marked “C”) | A (a TECC value less than 12 is marked “A”)
11 | CC(Cc1cccc(C2(C)COCC(C)(C)CS(=O)(=O)CCc3c(c(F)cc4[nH]ccc34)Oc3ccc(F)c(c3)-c3nc2nn3C)c1)C(=O)O (single isomer, unassigned) [Compound 113B] | A (an ΔTagg value less than or equal to 5 °C is marked “A”) | A (a TECC value less than 12 is marked “A”)
12 | [2H]C([2H])([2H])C1(c2cccc(CC(C)C(=O)O)c2)COCC(C)(C)CS(=O)(=O)CCc2c(c(F)c(F)c3[nH]ccc23)Oc2ccc(F)c(c2)-c2nc1nn2C (single isomer, unassigned) [Compound 118A, 2-methyl-3-[3-[21,22,28-trifluoro-3,10,10-trimethyl-12,12-dioxo-6-(trideuteriomethyl)-8,24-dioxa-12λ6-thia-3,4,19,30-tetrazapentacyclo[23.3.1.12,5.015,23.016,20]triaconta-1(29),2(30),4,15,17,20,22,25,27-nonaen-6-yl]phenyl]propanoic acid] | C (a value greater than 10 °C and less than or equal to 25 °C is marked “C”) | A (a TECC value less than 12 is marked “A”)
13 | [2H]C([2H])([2H])C1(c2cccc(CC(C)C(=O)O)c2)COCC(C)(C)CS(=O)(=O)CCc2c(c(F)c(F)c3[nH]ccc23)Oc2ccc(F)c(c2)-c2nc1nn2C (single isomer, unassigned) [Compound 118B, 2-methyl-3-[3-[21,22,28-trifluoro-3,10,10-trimethyl-12,12-dioxo-6-(trideuteriomethyl)-8,24-dioxa-12λ6-thia-3,4,19,30-tetrazapentacyclo[23.3.1.12,5.015,23.016,20]triaconta-1(29),2(30),4,15,17,20,22,25,27-nonaen-6-yl]phenyl]propanoic acid] | A (an ΔTagg value less than or equal to 5 °C is marked “A”) | A (a TECC value less than 12 is marked “A”)
14 | [2H]C([2H])([2H])C1(c2cccc(CC(C)C(=O)O)c2)CCC(C)(C)CCS(=O)(=O)CCc2c(c(F)cc3[nH]ccc23)Oc2ccc(F)c(c2)-c2nc1nn2C (single isomer, unassigned) [Compound 119A, 3-[3-[22,28-difluoro-3,9,9-trimethyl-12,12-dioxo-6-(trideuteriomethyl)-24-oxa-12lambda6-thia-3,4,19,30-tetrazapentacyclo[23.3.1.12,5.015,23.016,20]triaconta-1(29),2(30),4,15,17,20,22,25,27-nonaen-6-yl]phenyl]-2-methyl-propanoic acid] | A (an ΔTagg value less than or equal to 5 °C is marked “A”) | A (a TECC value less than 12 is marked “A”)
